# Source: patent publication US8703749B2, “Compositions and methods for treating Friedreich's Ataxia” (priority 2009, dated 2014)
# Where a SMILES comes first, the peptide text is derived from it. The star is where a group is joined. Cbz = O=C(OCc1ccccc1)*
# Assays:
# [1] = molecular target: T1, frataxin (Homo sapiens, UniProt Q16595); test: Frataxin accumulation in HEK-293 Flp-In cells stably expressing frataxin 1-210 (WB, FACS); format: cell-based; parameters: HEK-293 Flp-In cells stably transfected with frataxin^1-210; expressed in transfected cells; details: HEK-293 Flp-In frataxin 1-210
# T1 sequence (Q16595 42-210): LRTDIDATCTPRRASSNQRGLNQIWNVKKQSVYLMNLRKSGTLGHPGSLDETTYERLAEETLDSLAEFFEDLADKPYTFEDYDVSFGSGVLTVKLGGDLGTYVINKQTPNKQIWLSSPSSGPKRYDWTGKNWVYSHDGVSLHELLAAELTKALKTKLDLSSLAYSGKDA
# Procedure: (§1) Human embryonic kidney HEK-293 cells and Hela cells were maintained in DMEM supplemented with 10% FBS. HEK-293 were transfected with the calcium/phosphate precipitation method, using 20 μg total DNA (10 μg pIRES-frataxin and 10 μg HA-Ub, or corresponding empty vectors) on 10 cm dishes. Hela cells were transfected using Lipofectamine 2000 reagents (Invitrogen), according to manufacturer's instructions. Where indicated, the day after transfection, cells were treated for 16 h with 10 μM proteasome inhibitors, MG132 or Lactacystin, or 50 ng/ml DUB inhibitor Ubiquitin-Aldehyde. Flp-In-HEK-293 cells (Invitrogen) are HEK-293 variants allowing the stable and isogenic integration and expression of a transfected gene. Flp-In-HEK-293 cells were maintained in DMEM supplemented with 10% FBS and transfected with the calcium/phosphate precipitation method. Briefly, cells were plated on 10 cm dishes and transfected with 10 μg total DNA. The HEK-293 clone stably expressing frataxin^1-210 was previously described (4). The HEK-293 clone stably expressing frataxin^K147R was obtained from cultures in selection medium containing 100 μg/ml hygromycin B (Invitrogen). FRDA lymphoblasts GM15850, GM16798 and GM16241, as well control lymphoblasts GM15851, GM16241 and GM16215, were maintained in RPMI supplemented with 15% FBS. Treatments with specific ubiquitin-competing molecules were performed in 20% FBS containing medium. FRDA fibroblasts GM03816 were maintained in DMEM supplemented with 15% FBS.
# (§2) Cell extracts were prepared in modified RIPA buffer (10 mM sodium phosphate pH7.2, 150 mM NaCl, 1% Na deoxycholate, 0.1% SDS, 1% Np40, 2 mM EDTA) or IP buffer (50 mM Tris-HCl, pH 7.5, 150 mM NaCl, 1% Nonidet P-40, 5 mM EDTA, 5 mM EGTA) supplemented with Complete protease inhibitor cocktail and 2 mM N-Ethylmaleimide (NEM). For immunoblotting, 100 μg of protein extract were separated on 12% SDS-PAGE, blotted onto nitrocellulose membrane and detected with specific antibodies. For in vivo detection of ubiquitin-conjugates […] and 50 ng/ml Ubiquitin-Aldehyde were added to the lysis buffer. For immunoprecipitation, 5 mg of total protein extract prepared as above were incubated for 1-2 h at 4° C. with specific antibodies, previously conjugated to Protein G-sepharose (GE Healthcare). Immunocomplexes were then resolved and analysed by SDS-PAGE. […] Densitometric analysis was performed using ImageJ software.
# Cells were collected after the indicated treatments and fixed for 20 minutes in 4% paraformaldehyde at room temperature. Cells were then permeabilized and blocked in a blocking solution (3% FBS in PBS) containing 0.2% Triton, for 1 hour at room temperature. Cells were then incubated overnight at 4° C. with anti-frataxin monoclonal antibody (MAB-10485, Immunological Science) or anti-Bcl2 monoclonal antibody (sc-509, Santa Cruz) diluted 1:200 in blocking solution. Cells were then washed 3 times in PBS and incubated for 1 hour at room temperature with FITC-conjugated goat anti-mouse IgG/IgM (BD Bioscience Pharmingen) diluted 1:200 in blocking solution. After washing 3 times with PBS cells were analyzed by flow cytometry (Becton Dickinson).
# HEK-293 Flp-In cells stably transfected with frataxin^1-210 were treated for the indicated times with 10 μM MG132. Total cell extracts were blotted as in A. One representative experiment out of four performed with similar results is shown in FIG. 18.
# Formula III induces frataxin precursor accumulation. HEK-293 Flp-In cells stably expressing frataxin^1-210 were treated for the indicated days with 20 μM of Formula III or 10 μM MG132. Total cell extracts were resolved on SDS-PAGE and analyzed with anti-frataxin antibody, or anti-tubulin, as a loading control.
# Formula III induces mature frataxin accumulation. HEK-293 Flp-In cells stably expressing frataxin^1-210 were treated and analyzed as in B. One representative experiment out of three performed with similar results is shown FIG. 5C. […]
# [2] = molecular target: T1, frataxin; test: Frataxin ubiquitination in HEK-293 cells co-transfected with HA-Ub and frataxin 1-210 (IP/WB); format: cell-based; parameters: HEK-293 cells transiently transfected with frataxin^1-210 and HA-tagged ubiquitin (HA-Ub); expressed in transfected cells; host or cells: HEK-293
# Procedure: as §1, with “The HEK-293 clone stably expressing frataxin^K147R was obtained from cultures in selection medium containing 100 μg/ml hygromycin B (Invitrogen). FRDA lymphoblasts GM15850, GM16798 and GM16241, as well control lymphoblasts GM15851, GM16241 and GM16215, were maintained in RPMI supplemented with 15% FBS. Treatments with specific ubiquitin-competing molecules were performed in 20% FBS containing medium. FRDA fibroblasts GM03816 were maintained in DMEM supplemented with 15% FBS.” left out
# (§3) Cell extracts were prepared in modified RIPA buffer (10 mM sodium phosphate pH7.2, 150 mM NaCl, 1% Na deoxycholate, 0.1% SDS, 1% Np40, 2 mM EDTA) or IP buffer (50 mM Tris-HCl, pH 7.5, 150 mM NaCl, 1% Nonidet P-40, 5 mM EDTA, 5 mM EGTA) supplemented with Complete protease inhibitor cocktail and 2 mM N-Ethylmaleimide (NEM). For immunoblotting, 100 μg of protein extract were separated on 12% SDS-PAGE, blotted onto nitrocellulose membrane and detected with specific antibodies. […] Immunocomplexes were then resolved and analysed by SDS-PAGE. […]
# FIG. 2A illustrates HEK-293 cells transiently transfected with frataxin^1-210 and HA-tagged ubiquitin (HA-Ub) (where indicated) were treated with 10 μM MG132 (MG) for 16 h. […] Total cell extracts (lanes 1-4) or anti-HA immunoprecipitates (lanes 5-8) were analyzed by WB with anti-frataxin antibody. […]
# Formula III prevents frataxin ubiquitination. […] Total cell extracts (upper panel) or anti-HA immunoprecipitated proteins (lower panel) were detected with anti-frataxin antibody.
# [3] = molecular target: T1, frataxin; test: Frataxin accumulation in FRDA lymphoblasts (FACS, SDS-PAGE/western blot); format: cell-based; details: FRDA lymphoblasts GM15850; 50 μM; 6 days
# Procedure: as §1, with “The HEK-293 clone stably expressing frataxin^K147R was obtained from cultures in selection medium containing 100 μg/ml hygromycin B (Invitrogen). FRDA lymphoblasts GM15850, GM16798 and GM16241, as well control lymphoblasts GM15851, GM16241 and GM16215, were maintained in RPMI supplemented with 15% FBS. Treatments with specific ubiquitin-competing molecules were performed in 20% FBS containing medium. FRDA fibroblasts GM03816 were maintained in DMEM supplemented with 15% FBS.” left out
# as §3
# Cells were collected after the indicated treatments and fixed for 20 minutes in 4% paraformaldehyde at room temperature. […] After washing 3 times with PBS cells were analyzed by flow cytometry (Becton Dickinson).
# FRDA lymphoblasts GM15850 were cultured for 6 days in the presence of 50 μM Formula IV or Formula VI. Cells were then fixed, stained with anti-frataxin antibody or anti-Bcl2, as a control, and analyzed by flow cytometry. […]
# [4] = tested on: FRDA cells; test: Tolerability by FRDA cells; format: cell-based, human; details: among the different ubiquitin-competing molecules
# [5] = tested on: frataxin; test: Frataxin precursor accumulation in HeLa cells transiently transfected with frataxin 1-210 (immunoblot); format: cell-based, human; details: 10 μM proteasome inhibitor, 18 h
# Procedure: Human embryonic kidney HEK-293 cells and Hela cells were maintained in DMEM supplemented with 10% FBS. HEK-293 were transfected with the calcium/phosphate precipitation method, using 20 μg total DNA (10 μg pIRES-frataxin and 10 μg HA-Ub, or corresponding empty vectors) on 10 cm dishes. Hela cells were transfected using Lipofectamine 2000 reagents (Invitrogen), according to manufacturer's instructions. […] Flp-In-HEK-293 cells (Invitrogen) are HEK-293 variants allowing the stable and isogenic integration and expression of a transfected gene. Flp-In-HEK-293 cells were maintained in DMEM supplemented with 10% FBS and transfected with the calcium/phosphate precipitation method. Briefly, cells were plated on 10 cm dishes and transfected with 10 μg total DNA. The HEK-293 clone stably expressing frataxin^1-210 was previously described (4). […]
# as §3
# [6] = tested on: frataxin precursor; test: Cycloheximide chase of frataxin precursor degradation in HEK-293 Flp-In cells; format: cell-based, human; details: 100 μg/ml cycloheximide, 10 μM MG132
# Procedure: as §2
# HEK-293 Flp-In cells stably transfected with frataxin^1-210 (FIG. 1E) or empty vector (FIG. 1G) were treated for the indicated times with 100 μg/ml cycloheximide (CHX) in the presence or absence of 10 μM MG132 (MG). […] One representative experiment out of five performed with similar results is shown. Pre: precursor, tub: tubulin.
smiles,measurement,setting,value
O=[N+]([O-])c1cc(/C=N/NS(=O)(=O)c2ccc(F)cc2)c(O)c([N+](=O)[O-])c1 [Formula III],accumulation of the frataxin precursor,"[1]; 20 μM, days, WB",substantial accumulation
same,accumulation of mature frataxin,"[1]; 20 μM, over a longer time period, WB",substantial accumulation
same,ubiquitination of frataxin 1-210,"[2]; HEK-293 co-transfected with HA-Ub and frataxin 1-210, 20 μM and 50 μM, revealed after 48 h",efficiently prevents the ubiquitination
O=[N+]([O-])c1cccc(/C=N/NS(=O)(=O)c2ccc(F)cc2)c1O [Formula VI],frataxin accumulation by FACS analysis,[3],discrete frataxin accumulation detectable in all cells
same,frataxin accumulation by WB and FACS analysis,"[1]; 100 μM, 18 hours",effective in inducing frataxin accumulation
same,tolerability by FRDA cells,[4],best tolerated
CC(C)C[C@@H](C=O)NC(=O)[C@H](CC(C)C)NC(=O)[C@H](CC(C)C)NC(=O)OCc1ccccc1 [MG132] (Cbz-Leu-Leu-Leu-aldehyde),accumulation of frataxin precursor compared to untreated cells,[5],significantly higher amounts of precursor
same,accumulation of mature frataxin,"[1]; 10 μM MG132, after 24 hrs",~2.5 fold
same,accumulation of the frataxin precursor,"[1]; 10 μM MG132, after 24 hrs",> 15 fold
same,accumulation of mono-ubiquitinated frataxin,"[2]; HEK-293 co-transfected with frataxin 1-210 and HA-Ub, 10 μM MG132, 16 h",allows the accumulation and detection of mono-ubiquitinated frataxin
same,accumulation of poly-ubiquitinated frataxin,"[2]; HEK-293 co-transfected with frataxin 1-210 and HA-Ub, 10 μM MG132, 16 h, frataxin IP, anti-Ub WB",allows the accumulation and detection also of poly-ubiquitinated frataxin
same,degradation of the endogenous frataxin precursor,[6]; HEK-293 Flp-In empty vector,prevents the degradation
same,time-dependent degradation of the frataxin precursor,[6]; HEK-293 Flp-In frataxin 1-210,blocked
CC(=O)N[C@@H](CSC(=O)[C@]1([C@@H](O)C(C)C)NC(=O)[C@H](C)[C@@H]1O)C(=O)O [lactacystin],accumulation of frataxin precursor compared to untreated cells,[5],significantly higher amounts of precursor
